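Cultured in 96-well plates, cells were exposed to test compound for 48 hours across five concentrations. GI50 is the concentration that inhibits growth by half.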 Activity calls are given as the source filed them. No stated cut-off is given here; in the data, active = GI50 up to about 1.1 µM and inactive = higher.
Tests used:
Assay in all cases: NCI-60 cell line screen, 48 h
PC-3 = system: PC-3
BT-549 = system: BT-549
MDA-MB-435 = system: MDA-MB-435
CCRF-CEM = system: CCRF-CEM
SN12C = system: SN12C
Hs-578T = system: Hs-578T
MDA-MB-231 = system: MDA-MB-231
NCI-H460 = system: NCI-H460
UO-31 = system: UO-31
CAKI-1 = system: CAKI-1
OVCAR-8 = system: OVCAR-8
SK-MEL-28 = system: SK-MEL-28
RXF 393 = system: RXF 393
NCI-H226 = system: NCI-H226
HL-60 = system: HL-60
M14 = system: M14
SK-MEL-5 = system: SK-MEL-5
A549 = system: A549
MDA-N = system: MDA-N

Row | SMILES | GI50 (PC-3) | GI50 (BT-549) | GI50 (MDA-MB-435) | GI50 (CCRF-CEM) | GI50 (SN12C) | GI50 (Hs-578T) | GI50 (MDA-MB-231) | GI50 (NCI-H460) | GI50 (UO-31) | GI50 (CAKI-1) | GI50 (OVCAR-8) | GI50 (SK-MEL-28) | GI50 (RXF 393) | GI50 (NCI-H226) | GI50 (HL-60) | GI50 (M14) | GI50 (SK-MEL-5) | GI50 (A549) | GI50 (MDA-N)
1 | COc1ccc(Cc2cc(OC)c(OC)c(OC)c2)cc1O | < 0.0171 µM (active) | < 0.01 µM (active) | < 0.01 µM (active) | 0.0177 µM (active) | 0.173 µM (active) | 0.0137 µM (active) | 0.0122 µM (active) | 0.0841 µM (active) | 1.03 µM (active) | > 24.7 µM (inactive) | 0.0769 µM (active) | < 0.0169 µM (active) | 0.181 µM (active) | 36.7 µM (inactive) | 0.0235 µM (active) | 0.0255 µM (active) | 0.0215 µM (active) | 0.119 µM (active) | < 0.01 µM (active)
2 | Cc1nc(N)nc2ccccc12 | > 100 µM (inactive) | > 100 µM (inactive) | > 100 µM (inactive) | > 100 µM (inactive) | > 100 µM (inactive) | > 100 µM (inactive) | > 100 µM (inactive) | > 100 µM (inactive) | > 100 µM (inactive) | > 100 µM (inactive) | > 100 µM (inactive) | > 100 µM (inactive) | > 100 µM (inactive) | 0.172 µM (active) | > 100 µM (inactive) | > 100 µM (inactive) | > 100 µM (inactive) | > 100 µM (inactive) | > 100 µM (inactive)
3 | Nc1ncnc2nn(C3OC(CO)C(O)C3O)nc12 (stereo unspecified) | 17.3 µM (inactive) | 24.2 µM (inactive) | 9.1 µM (inactive) | 21.1 µM (inactive) | 8.02 µM (inactive) | 31.5 µM (inactive) | 3.75 µM (inactive) | 4.09 µM (inactive) | 6.44 µM (inactive) | 8.55 µM (inactive) | 8.11 µM (inactive) | 36.6 µM (inactive) | 2 µM (inactive) | 5.36 µM (inactive) | 2.43 µM (inactive) | 6.82 µM (inactive) | 12.8 µM (inactive) | 9.16 µM (inactive) | 10.3 µM (inactive)
4 | CCOC(=O)c1oc2cc3c(c4c2c1-c1ccccc1N4C)C=CC(C)(C)O3 | 12.3 µM (inactive) | 23.6 µM (inactive) | 52.1 µM (inactive) | 12.4 µM (inactive) | 40.6 µM (inactive) | 19.9 µM (inactive) | 10.4 µM (inactive) | 20.5 µM (inactive) | 19.5 µM (inactive) | 15.9 µM (inactive) | 5.85 µM (inactive) | 23.5 µM (inactive) | 7.31 µM (inactive) | 16.8 µM (inactive) | 24.4 µM (inactive) | 40.2 µM (inactive) | 15.8 µM (inactive) | 24.5 µM (inactive) | > 79.8 µM (inactive)
